Among the test systems are HOP-62 NSCLC; MALME-3M melanoma; UACC-257 melanoma; COLO 205 colon; HCT-116 colon; MDA-MB-435; SF-295 CNS; MCF7 breast; NCI-H226 lung; BT-549 breast; OVCAR-4 ovarian; NCI/ADR-RES ovarian; PC-3 prostate; HCT-15 colon; MOLT-4 leukemia; UO-31 renal; 786-0 renal; K-562 leukemia; SW-620 colon; SK-MEL-2 melanoma.
Common to all, as to assay: inhibition of tumour cell growth, NCI panel, 48 h

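Briefly, cells in 96-well plates were exposed to five compound concentrations for 48 h, and endpoints were estimated by linear interpolation. TGI marks complete inhibition of growth.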

For `COC(=O)c1nc2n(n1)-c1ccccc1C(=O)N(Cc1ccccc1)C2`, the TGI in the test with HOP-62 NSCLC, in the test with MALME-3M melanoma, in the test on UACC-257 melanoma, with COLO 205 colon, with HCT-116 colon and in the test with MDA-MB-435 was more than 100 µM in each case. For the same molecule, the TGI in the test on SF-295 CNS, with MCF7 breast, in the test on NCI-H226 lung, in the test with BT-549 breast, in the test on OVCAR-4 ovarian and with NCI/ADR-RES ovarian was more than 100 µM in each case. The TGI in the test on PC-3 prostate, in the test on HCT-15 colon, in the test with MOLT-4 leukemia, in the test on UO-31 renal, in the test on 786-0 renal and in the test with K-562 leukemia was more than 100 µM each time. Besides, the TGI in the test with SW-620 colon and with SK-MEL-2 melanoma was more than 100 µM throughout.

For `COc1ccc(CC(COS(=O)(=O)c2ccc(C)cc2)NS(=O)(=O)c2ccc(C)cc2)cc1` (stereo not given), the TGI in the test on HOP-62 NSCLC is 41.2 µM; in the test on MALME-3M melanoma it was 27.3 µM; in the test on UACC-257 melanoma, 67.1 µM; in the test on COLO 205 colon, 34.3 µM; in the test on HCT-116 colon, more than 48.4 µM; with MDA-MB-435, 28.5 µM. The TGI with SF-295 CNS was 33.6 µM; in the test with MCF7 breast it was more than 69.7 µM; in the test with NCI-H226 lung, 27.7 µM; in the test on BT-549 breast it was 23.7 µM; in the test with OVCAR-4 ovarian, 41.9 µM; with NCI/ADR-RES ovarian, more than 52.7 µM. In addition, the TGI in the test on PC-3 prostate is 38.9 µM; with HCT-15 colon, 41.1 µM; in the test with MOLT-4 leukemia it was more than 100 µM; with UO-31 renal it was 40.2 µM; in the test on 786-0 renal it was 53.1 µM; in the test with K-562 leukemia, more than 100 µM. The results for the TGI in the test with SW-620 colon and in the test with SK-MEL-2 melanoma were 27 µM and 44.7 µM, respectively.

Consider `COc1cc(Nc2nc(NS(=O)(=O)c3cc(C)c(Cl)cc3S)n[nH]2)cc(OC)c1OC`, for which the TGI in the test with HOP-62 NSCLC, in the test on MALME-3M melanoma, with UACC-257 melanoma, in the test on COLO 205 colon, in the test with HCT-116 colon and with MDA-MB-435 was more than 100 µM in each case. For the same molecule, the TGI in the test with SF-295 CNS, with MCF7 breast, with NCI-H226 lung, in the test on BT-549 breast, in the test with OVCAR-4 ovarian and in the test on NCI/ADR-RES ovarian was more than 100 µM throughout. Further, the TGI in the test with PC-3 prostate, with HCT-15 colon, in the test with MOLT-4 leukemia, with UO-31 renal, in the test with 786-0 renal and in the test with K-562 leukemia was more than 100 µM each time. In addition, the TGI with SW-620 colon and in the test on SK-MEL-2 melanoma was more than 100 µM each time.

`O=C(c1ccccc1)N1N=C(C(F)(F)F)CC1(O)C(F)(F)F` (stereo not given): the TGI in the test with HOP-62 NSCLC, in the test on MALME-3M melanoma, with UACC-257 melanoma, in the test with COLO 205 colon, in the test on HCT-116 colon and in the test with MDA-MB-435 was more than 100 µM throughout. The TGI in the test with SF-295 CNS, in the test on MCF7 breast, in the test with NCI-H226 lung, with BT-549 breast, in the test on OVCAR-4 ovarian and in the test on NCI/ADR-RES ovarian was more than 100 µM in each case. The TGI with PC-3 prostate, in the test on HCT-15 colon, in the test with MOLT-4 leukemia, with UO-31 renal, in the test on 786-0 renal and with K-562 leukemia was more than 100 µM in each case. In addition, the TGI in the test with SW-620 colon and in the test with SK-MEL-2 melanoma was more than 100 µM in each case.

Take `Cc1ccc(Nc2nc3ccccc3nc2NS(=O)(=O)c2ccc(N)cc2)cc1`: the TGI in the test on HOP-62 NSCLC, in the test on MALME-3M melanoma, in the test with UACC-257 melanoma, in the test with COLO 205 colon, in the test on HCT-116 colon and in the test with MDA-MB-435 was more than 100 µM throughout. Also, the TGI with SF-295 CNS was more than 100 µM; in the test with MCF7 breast, more than 100 µM; in the test with NCI-H226 lung, more than 100 µM; with BT-549 breast it was more than 100 µM; in the test with OVCAR-4 ovarian, 71 µM; with NCI/ADR-RES ovarian it was more than 100 µM. The TGI with PC-3 prostate was more than 100 µM; in the test on HCT-15 colon, more than 100 µM; with MOLT-4 leukemia, 81.8 µM; with UO-31 renal, 65.5 µM; in the test with 786-0 renal, more than 100 µM; with K-562 leukemia it was more than 100 µM. Further, the TGI with SW-620 colon is more than 100 µM; in the test with SK-MEL-2 melanoma it was 81.9 µM.

Values taken from PubChem BioAssay (NCI).
